Source: PubChem BioAssay AID977605 (Broad Institute, 2014)
Active and inactive are the calls of the source.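 Rule for the calls: active = fitted curve reaches 40% activation below the top valid tested dose, in every test run; inconclusive = test runs disagree on the call; inactive = the rest, including effects opposite to the expected direction.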

assay: E-selectin inducers in HUVECs, dose response, imaging, HUVEC, cherry-picked samples (AID 977605); settings: HUVEC E-selectin immunostaining, at 19.5 µM (top of the series), percent of TNF-alpha response over vehicle;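 note: signal is the share of imaged cells scored positive for E-selectin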

Question: For `CCCC#Cc1ccc2c(c1)O[C@H](CN(C)C(C)=O)[C@H](C)CN([C@@H](C)CO)S2(=O)=O`, which activation is on record?
Answer: 0.607% (inactive)

Question: With `CC(C)NC(=O)Nc1ccc2c(c1)C(=O)N([C@@H](C)CO)C[C@@H](C)[C@H](CN(C)Cc1ccc(C(=O)O)cc1)O2` as the molecule, how does the activation read?
Answer: -0.098% (inactive)

Question: For `CC(C)NC(=O)Nc1ccc2c(c1)CC(=O)N([C@@H](C)CO)C[C@H](C)[C@H](CN(C)Cc1ccc(C(=O)O)cc1)O2`, which activation is on record?
Answer: 0.025% (inactive)

Question: With `C[C@H](CO)N1C[C@H](C)[C@H](CN(C)Cc2ccc(C(F)(F)F)cc2)Oc2ccc(NC(=O)Cc3cn(C)c4ccccc34)cc2CC1=O` as the molecule, how does the activation read?
Answer: 0.156% (inactive)

Question: Which activation does the source give for `C[C@@H]1CN([C@@H](C)CO)C(=O)c2cc(NC(=O)Nc3ccc(F)cc3)ccc2O[C@@H]1CN(C)S(=O)(=O)c1cccs1` here?
Answer: -0.142% (inactive)

Question: Which activation does the source give for `C[C@@H]1CN([C@H](C)CO)C(=O)Cc2cc(NS(=O)(=O)c3ccccc3)ccc2O[C@@H]1CN(C)Cc1ccc(C(F)(F)F)cc1` here?
Answer: 0.93% (inactive)

Question: With `CCn1c(CNc2ccc(Cl)cc2)nnc1SCC#N` as the molecule, how does the activation read?
Answer: -0.124% (inactive)

Question: For `COc1ccc(NC(=O)N(C)C[C@H]2Oc3ccc(NC(=O)c4ccncc4)cc3CC(=O)N([C@H](C)CO)C[C@H]2C)cc1`, which activation is on record?
Answer: -0.01% (inactive)

Question: For `C[C@@H]1CN([C@H](C)CO)C(=O)Cc2cc(NC(=O)Nc3ccc4c(c3)OCO4)ccc2O[C@H]1CN(C)Cc1ccc(Cl)c(Cl)c1`, which activation is on record?
Answer: 0.291% (inactive)

Question: For `C[C@H](CO)N1C[C@H](C)[C@@H](CN(C)Cc2ccc(C(=O)O)cc2)Oc2ccc(NC(=O)Nc3ccc(F)cc3)cc2CC1=O`, which activation is on record?
Answer: 0.279% (inactive)

Question: With `C[C@H](CO)N1C[C@H](C)[C@H](CN(C)Cc2ccc(C(F)(F)F)cc2)Oc2ccc(NS(=O)(=O)c3cn(C)cn3)cc2CC1=O` as the molecule, how does the activation read?
Answer: -0.066% (inactive)

Question: For `CO[C@@H]1CN(C)C(=O)c2ccc(NC(=O)c3nc4ccccc4s3)cc2OC[C@@H](C)N(Cc2cncnc2)C[C@@H]1C`, which activation is on record?
Answer: -0.082% (inactive)

Question: With `C[C@H]1CN([C@@H](C)CO)C(=O)Cc2cc(NC(=O)Nc3ccc(F)cc3)ccc2O[C@H]1CN(C)C(=O)Nc1ccc(C(F)(F)F)cc1` as the molecule, how does the activation read?
Answer: 0.219% (inactive)

Question: Which activation does the source give for `COC(=O)c1sc2nc(SCC(=O)N(C)c3ccccc3)n(N)c(=O)c2c1C` here?
Answer: 1.12% (inactive)

Question: Which activation does the source give for `C[C@@H]1CN([C@@H](C)CO)C(=O)c2cc(NS(=O)(=O)c3cccs3)ccc2O[C@@H]1CN(C)S(C)(=O)=O` here?
Answer: -0.005% (inactive)

Question: Which activation does the source give for `C[C@@H]1CN([C@@H](C)CO)C(=O)Cc2cc(NC(=O)Cn3cnnn3)ccc2O[C@H]1CN(C)C(=O)Nc1ccc(C(F)(F)F)cc1` here?
Answer: -0.025% (inactive)

Question: With `O=S1(=O)CC(N2CCN(Cc3ccccc3F)CC2)CN1Cc1cn(Cc2ccccc2)nn1` (stereo not given) as the molecule, how does the activation read?
Answer: 0.129% (inactive)

Question: With `C[C@H]1CN([C@@H](C)CO)C(=O)c2cc(NC(=O)Cn3cnnn3)ccc2O[C@@H]1CN(C)Cc1ccc(Oc2ccccc2)cc1` as the molecule, how does the activation read?
Answer: -0.201% (inactive)

Question: For `C[C@@H]1CN([C@@H](C)CO)C(=O)c2cc(NC(=O)Cc3ccccc3)ccc2O[C@@H]1CN(C)C(=O)Nc1cccc2ccccc12`, which activation is on record?
Answer: -0.101% (inactive)

Question: For `CC1CCCC(C)N1C(=O)CSc1nc2c(c(=O)n(C)c(=O)n2C)n1C` (stereo not given), which activation is on record?
Answer: -0.005% (inactive)

Question: With `CC(C)CC#Cc1cnc2c(c1)C(=O)N([C@H](C)CO)C[C@@H](C)[C@H](CN(C)C(=O)c1ccc3c(c1)OCO3)O2` as the molecule, how does the activation read?
Answer: -0.021% (inactive)

Question: For `Cc1ccc(S(=O)(=O)Nc2cc(S(=O)(=O)N3CCCCC3)ccc2N2CCOCC2)cc1`, which activation is on record?
Answer: 0.047% (inactive)

Question: With `O=S(=O)(Nc1cccc(Oc2cnccn2)c1)c1ccc(F)cc1` as the molecule, how does the activation read?
Answer: 0.221% (inactive)

Question: Which activation does the source give for `C[C@@H]1CN([C@@H](C)CO)C(=O)c2cc(NC(=O)NC3CCCCC3)ccc2O[C@@H]1CN(C)S(=O)(=O)c1ccc(Cl)cc1` here?
Answer: -0.037% (inactive)

Question: For `O=S(=O)(NCc1csc(-c2cccs2)n1)c1cccc(C(F)(F)F)c1`, which activation is on record?
Answer: -0.123% (inactive)

Question: For `Cc1[nH]c(=O)c(C#N)cc1-c1ccncc1`, which activation is on record?
Answer: -0.055% (inactive)

Question: Which activation does the source give for `Cc1c(O)nc2ccccn2c1=O` here?
Answer: 0.171% (inactive)

Question: Which activation does the source give for `C[C@@H]1CN([C@H](C)CO)C(=O)c2cccc(NS(=O)(=O)c3cccs3)c2O[C@H]1CN(C)Cc1ccc(Cl)c(Cl)c1` here?
Answer: -0.024% (inactive)

Question: For `CCCCNC(=O)N1CCN(c2ccccc2OCC)CC1`, which activation is on record?
Answer: 0.12% (inactive)

Question: For `C[C@H]1CN([C@@H](C)CO)C(=O)c2cc(N(C)C)ccc2O[C@H]1CN(C)S(=O)(=O)c1cn(C)cn1`, which activation is on record?
Answer: 0.81% (inactive)

Question: With `C[C@@H]1CN([C@H](C)CO)C(=O)Cc2cc(NC(=O)Cc3ccccc3)ccc2O[C@H]1CN(C)S(C)(=O)=O` as the molecule, how does the activation read?
Answer: -0.135% (inactive)

Question: For `C[C@@H]1CN([C@H](C)CO)C(=O)Cc2cc(NS(C)(=O)=O)ccc2O[C@H]1CN(C)S(=O)(=O)c1cn(C)cn1`, which activation is on record?
Answer: -0.104% (inactive)

Question: Which activation does the source give for `C[C@H](CO)N1C[C@H](C)[C@H](CN(C)CC2CC2)Oc2c(NC(=O)C3CC3)cccc2C1=O` here?
Answer: -0.037% (inactive)

Question: For `C[C@@H]1CN([C@@H](C)CO)C(=O)Cc2cc(NC(=O)Nc3ccc(F)cc3)ccc2O[C@@H]1CN(C)Cc1ccc(C(=O)O)cc1`, which activation is on record?
Answer: -0.134% (inactive)

Question: Which activation does the source give for `C[C@@H]1CN([C@H](C)CO)C(=O)c2cc(NC(=O)CCCCCC(=O)Nc3ccccc3N)ccc2O[C@@H]1CN(C)C(=O)Nc1ccc2c(c1)OCO2` here?
Answer: -0.103% (inactive)

Question: With `C[C@@H]1CN([C@@H](C)CO)C(=O)c2cc(NC(=O)Nc3ccc(C(F)(F)F)cc3)ccc2O[C@@H]1CN(C)Cc1ccc(Oc2ccccc2)cc1` as the molecule, how does the activation read?
Answer: -0.275% (inactive)

Question: With `C[C@@H]1CN([C@H](C)CO)C(=O)c2cccc(NS(C)(=O)=O)c2O[C@@H]1CN(C)C(=O)Nc1cccc2ccccc12` as the molecule, how does the activation read?
Answer: -0.133% (inactive)

Question: With `Cc1noc(C)c1S(=O)(=O)Nc1ccc2c(c1)C(=O)N([C@@H](C)CO)C[C@H](C)[C@H](CN(C)Cc1ccc3c(c1)OCO3)O2` as the molecule, how does the activation read?
Answer: -0.065% (inactive)

Question: With `COc1ccc(OCCN2CCN(S(=O)(=O)c3ccccc3C(F)(F)F)CC2)cc1` as the molecule, how does the activation read?
Answer: -0.023% (inactive)

Question: For `COc1ccc(-c2nc3cc(C)c(Br)c(C)n3c2CC(C)(C)C)cc1OC`, which activation is on record?
Answer: 0.052% (inactive)

Question: For `C[C@@H]1CN([C@H](C)CO)C(=O)Cc2cc(NC(=O)C3CC3)ccc2O[C@@H]1CN(C)Cc1ccc2c(c1)OCO2`, which activation is on record?
Answer: -0.006% (inactive)

Question: For `COc1ccc(C(=O)N2CC(c3ccccc3)CC2=O)cc1` (stereo not given), which activation is on record?
Answer: -0.124% (inactive)

Question: With `C[C@H]1CN([C@@H](C)CO)C(=O)c2cc(NC(=O)NC3CCCCC3)ccc2O[C@@H]1CN(C)S(=O)(=O)c1ccc(Cl)cc1` as the molecule, how does the activation read?
Answer: 2.58% (inactive)

Question: For `C[C@@H]1CN([C@@H](C)CO)S(=O)(=O)c2ccc(C#CC3CC3)cc2O[C@@H]1CN(C)Cc1cccnc1`, which activation is on record?
Answer: -0.068% (inactive)

Question: For `CC(C)c1ccc(C(=O)Nc2nnc(S(=O)(=O)N3CCCCC3)s2)cc1`, which activation is on record?
Answer: -0.055% (inactive)

Question: With `Cc1ccccc1CN1CCN(S(=O)(=O)c2ccc(Cl)s2)CC1` as the molecule, how does the activation read?
Answer: 0.152% (inactive)

Question: For `C[C@@H]1CN([C@@H](C)CO)C(=O)c2cc(NC(=O)Cc3ccccc3)ccc2O[C@@H]1CN(C)Cc1ccc(Cl)c(Cl)c1`, which activation is on record?
Answer: 0.002% (inactive)

Question: Which activation does the source give for `CCOC(=O)c1sc(NC(=O)CN2C(=O)C3CC=CCC3C2=O)nc1C` (stereo not given) here?
Answer: 0.503% (inactive)

same assay, conditions: HUVEC E-selectin immunostaining, at 21 µM (top of the series), percent of TNF-alpha response over vehicle

Question: For `C[C@@H]1CN([C@H](C)CO)C(=O)Cc2cc(NC(=O)Nc3ccc(F)cc3)ccc2O[C@@H]1CN(C)S(=O)(=O)c1cn(C)cn1`, which activation is on record?
Answer: -0.103% (inactive)

Question: Which activation does the source give for `C[C@@H]1CN([C@@H](C)CO)C(=O)Cc2cc(NC(=O)Cc3ccccc3)ccc2O[C@@H]1CN(C)Cc1ccncc1` here?
Answer: -0.043% (inactive)
